# In ChEMBL document CHEMBL1126971, “Structure-activity relationships from molecular similarity matrices” (J Med Chem, 1993):
# How the values were obtained:
# [1] = target: T1, Corticosteroid-binding globulin (Homo sapiens) (UniProt P08185)
# T1 sequence (whole entry): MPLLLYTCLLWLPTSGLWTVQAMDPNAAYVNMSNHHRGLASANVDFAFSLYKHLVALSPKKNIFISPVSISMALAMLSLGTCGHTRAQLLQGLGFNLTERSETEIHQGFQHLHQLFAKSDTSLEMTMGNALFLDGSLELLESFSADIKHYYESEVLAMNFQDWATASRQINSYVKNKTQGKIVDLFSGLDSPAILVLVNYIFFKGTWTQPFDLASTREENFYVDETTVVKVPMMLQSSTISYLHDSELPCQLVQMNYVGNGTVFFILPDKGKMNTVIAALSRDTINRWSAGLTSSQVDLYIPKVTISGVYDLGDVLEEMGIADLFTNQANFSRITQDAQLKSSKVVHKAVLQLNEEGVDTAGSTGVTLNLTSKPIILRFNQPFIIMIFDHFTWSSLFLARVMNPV
# [2] = target: T2, Sex hormone-binding globulin (Homo sapiens) (UniProt P04278)
# T2 sequence (whole entry): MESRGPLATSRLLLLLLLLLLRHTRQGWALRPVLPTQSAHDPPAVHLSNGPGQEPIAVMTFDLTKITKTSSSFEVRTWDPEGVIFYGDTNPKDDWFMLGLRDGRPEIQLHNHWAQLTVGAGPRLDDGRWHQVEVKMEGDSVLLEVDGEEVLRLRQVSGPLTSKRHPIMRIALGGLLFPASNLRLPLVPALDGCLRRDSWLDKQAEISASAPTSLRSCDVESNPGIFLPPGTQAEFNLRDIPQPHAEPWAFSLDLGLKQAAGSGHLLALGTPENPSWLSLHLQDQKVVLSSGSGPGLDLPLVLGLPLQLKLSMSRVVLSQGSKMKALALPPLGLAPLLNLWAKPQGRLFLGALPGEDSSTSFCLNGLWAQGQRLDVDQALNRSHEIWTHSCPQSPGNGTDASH
# Description: Binding affinity against testosterone-binding globulin (TeBG)
# [3] = target: T1, Corticosteroid-binding globulin (Homo sapiens); assay: Binding affinity against corticosteroid-binding globulin (CBG)
# [4] = target: T1, Corticosteroid-binding globulin (Homo sapiens); remark: listed apart in the source
SMILES,Log 1/K [1],Log 1/K [2],Log 1/K [3],Log 1/K [4]
C[C@]12CCC(=O)C=C1CC[C@@H]1[C@@H]2CC[C@@]2(C)[C@H]1CC[C@]2(O)C(=O)CO,7.88,7.2,,
CC(=O)[C@@]1(O)CC[C@H]2[C@@H]3CCC4=CC(=O)CC[C@]4(C)[C@H]3CC[C@@]21C,7.74,7,,
C[C@@H]1C[C@@]2(C)C(=CC1=O)CCC1C3CCC(C(=O)CO)[C@@]3(C)CC(O)[C@@]12F (some centres not stated),5.8,,,
C[C@]12C[C@@H](O)[C@H]3[C@@H](CCC4=CC(=O)CC[C@@]43C)[C@@H]1CC[C@@H]2C(=O)CO,7.2,,,
CC(=O)[C@H]1CC[C@H]2[C@@H]3CC=C4C[C@@H](O)CC[C@]4(C)[C@H]3CC[C@]12C,5.22,7.15,,
CC(=O)[C@@]1(O)CC[C@H]2[C@@H]3CC=C4C[C@@H](O)CC[C@]4(C)[C@H]3CC[C@@]21C,5,6.36,,
C[C@]12CCC(=O)C=C1CCC1C3CC[C@H](C(=O)CO)[C@@]34C[C@H](OC4O)C12 (some centres not stated),,5.32,6.28,
CC(=O)[C@H]1CC[C@H]2[C@@H]3CCC4=CC(=O)CC[C@]4(C)[C@H]3CC[C@]12C,,6.94,,-7.38
CC(=O)OCC(=O)[C@@]1(O)CCC2C3CCC4=CC(=O)CC[C@]4(C)C3C(O)C[C@@]21C (some centres not stated),7.55,,,
C[C@]12CC[C@H](O)CC1=CC[C@@H]1[C@@H]2CC[C@]2(C)C(=O)CC[C@@H]12,5,7.82,,
CC(=O)[C@@]1(O)[C@H](O)C[C@H]2[C@@H]3CCC4=CC(=O)CC[C@]4(C)[C@H]3CC[C@@]21C,6.25,,,
CC(=O)[C@@]1(C)CCC2C3CCC4=CC(=O)CC[C@]4(C)C3CC[C@@]21C (some centres not stated),7.12,,,
CC(=O)[C@H]1CC[C@H]2[C@@H]3CCC4=CC(=O)CC[C@]4(C)[C@H]3C(=O)C[C@]12C,6.78,,,
C[C@]12C=CC(=O)C=C1CC[C@@H]1[C@@H]2[C@@H](O)C[C@@]2(C)[C@H]1CC[C@]2(O)C(=O)CO,7.51,,,
C[C@]12CCC(=O)C=C1CC[C@@H]1[C@@H]2CC[C@]2(C)C(=O)CC[C@@H]12,5.76,7.46,,
CC(=O)[C@H]1CC[C@H]2[C@@H]3CCC4=CC(=O)CC[C@@H]4[C@H]3CC[C@]12C,6.82,,,
C[C@]12CC[C@H]3[C@@H](CCC4=CC(=O)CC[C@@H]43)[C@@H]1CC[C@@H]2O,6.14,,,
C[C@]12CCC(=O)C=C1CC[C@@H]1[C@@H]2[C@@H](O)C[C@@]2(C)[C@H]1CC[C@]2(O)C(=O)CO,7.88,6.2,,
C[C@]12C[C@H](O)[C@H]3[C@@H](CCC4=CC(=O)CC[C@@]43C)[C@@H]1CC[C@@H]2C(=O)CO,7.88,6.34,,
C[C@]12CC[C@H]3[C@@H](CCC4=CC(=O)CC[C@@]43C)[C@@H]1CC[C@@H]2C(=O)CO,7.65,7.38,,
C[C@]12CCC(=O)C=C1CC[C@@H]1[C@@H]2C(=O)C[C@@]2(C)[C@H]1CC[C@]2(O)C(=O)CO,6.89,6.43,,
C[C@]12CC[C@H](O)C[C@@H]1CC[C@@H]1[C@@H]2CC[C@]2(C)[C@@H](O)CC[C@@H]12,5,9.11,,
C[C@]12CC[C@@H]3c4ccc(O)cc4CC[C@H]3[C@@H]1C[C@@H](O)[C@H]2O,5,6.63,,
